# Measurements taken from patent publication US20250222146A1, “Radiopharmaceuticals Targeting Somatostatin Receptor 2 and Uses Thereof” (RayzeBio, Inc., priority 2023, published 2025).
# Where two headings read alike, the source gives them in different places. Numbered stars: 1 amine (or outer) side, 2 acyl side, 3 side chain; on linkers, the order of the positions; unused ones are H or OH. Square brackets hold non-standard residues; d marks the D form. Peptide text beside a SMILES is read from it. * marks the point of attachment. DOTA(Lu)NH(CH2)6NHCOCH2 = O=C(CN1CCN2CCN3CCN(CC1)CC(=O)[O][Lu]([O]C(=O)C2)[O]C(=O)C3)NCCCCCCNC(=O)C*; X3 = O=C(O)CN1CCN(CC(=O)O)CCN(CC(=O)NCCCCCCNC(=O)C*)CCN(CC(=O)O)CC1; dTrp(βS-Me) = C[C@@H](c1c[nH]c2ccccc12)[C@@H](N)C(=O)O; Phe(3-CONH2) = NC(=O)c1cccc(C[C@H](N)C(=O)O)c1; dTrp(6-F) = N[C@H](Cc1c[nH]c2cc(F)ccc12)C(=O)O; Phe(2-CONH2) = NC(=O)c1ccccc1C[C@H](N)C(=O)O; Phe(3R-Me) = C[C@H](c1ccccc1)[C@H](N)C(=O)O; Tyr(3-F) = N[C@@H](Cc1ccc(O)c(F)c1)C(=O)O; X21 = CC(c1ccccc1)[C@H](N[*:1])C(=O)[*:2]; X22 = O=C([C@H](Cc1ccc(O)nc1)N[*:1])[*:2]; 3Pal = N[C@@H](Cc1cccnc1)C(=O)O; 4Pal = N[C@@H](Cc1ccncc1)C(=O)O; NMehCys = CN[C@@H](CCS)C(=O)O
# Biological target: SSTR2 (Homo sapiens, UniProt P30874)
# Assay: SSTR binding affinity by radioligand binding competition assay ([125I]-Tyr11-Somatostatin, membrane extracts)
# Experimental: Macrocyclic peptides in this invention were tested for binding to SSTR protein by a radioligand binding competition assay. For radioligand binding assay, competition binding is performed in duplicate in the wells of a 96 well plate containing binding buffer (HEPES 25 mM pH 7.4, MgCl2 5 mM, CaCl2 1 mM, BSA 0.5%, Saponine 10 μg/ml)), membrane extracts (0.6 μg protein/well), radiotracer ([125I]-Tyr11-Somatostatin, Perkin Elmer NEX389) and test compound. Nonspecific binding is determined by co-incubation with 200-fold excess of cold competitor (SST28). The samples are incubated in a final volume of 0.1 ml for 60 min at room temperature and then filtered over UniFilter-96 GF/C (Revvity 6055690) filter plates. Filters are washed six times with 0.5 ml of ice-cold washing buffer (HEPES 25 mM pH 7.4, MgCl2 5 mM, CaCl2 1 mM) and 50 μl of Microscint 20 (Packard) are added in each well. The plates are incubated 15 min on an orbital shaker and then counted with a TopCount™ for 1 min/well. For IC50 to Ki determination, the Cheng Prusoff equation is used: Ki=IC50/(1+ [tracer]/Kd). [Tracer] is 0.1 nM as mentioned above.
# [1] = radioligand competition, [125I]-Tyr11-Somatostatin 0.1 nM, membrane extracts, Ki from IC50 by Cheng Prusoff, read-out: SSTR2 Ki
# [2] = SSTR2 Ki, radioligand competition, [125I]-Tyr11-Somatostatin 0.1 nM, membrane extracts, Ki from IC50 by Cheng Prusoff
# Sequence of SSTR2 (P30874 whole entry): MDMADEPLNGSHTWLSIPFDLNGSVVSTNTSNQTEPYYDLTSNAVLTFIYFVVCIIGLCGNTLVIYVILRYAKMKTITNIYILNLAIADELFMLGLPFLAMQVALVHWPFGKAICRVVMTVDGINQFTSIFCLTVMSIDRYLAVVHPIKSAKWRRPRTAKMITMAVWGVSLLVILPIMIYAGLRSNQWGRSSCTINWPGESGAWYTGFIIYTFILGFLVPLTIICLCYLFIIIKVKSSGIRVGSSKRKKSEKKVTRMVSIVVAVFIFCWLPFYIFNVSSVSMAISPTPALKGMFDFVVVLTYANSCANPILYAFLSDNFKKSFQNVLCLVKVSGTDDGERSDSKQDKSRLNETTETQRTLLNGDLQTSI
Compound,Ki [1] [nM],other results
C[C@@H](O)[C@@H]1NC(=O)[C@H](CCCCN)NC(=O)[C@@H](Cc2c[nH]c3ccccc23)NC(=O)[C@H](Cc2ccc(O)cc2)NC(=O)[C@H](CCSCC(=O)NCCCCCCNC(=O)CN2CCN3CCN4CCN(CC2)CC(=O)[O][Lu]([O]C(=O)C3)[O]C(=O)C4)N(C)C(=O)[C@H](Cc2ccc(O)nc2)NC1=O [RB-0003279] (cyclo(KT[X22][NMehCys](DOTA(Lu)NH(CH2)6NHCOCH2)Y[dW])),3.33 to 10,–
C[C@@H](O)[C@@H]1NC(=O)[C@H](CCCCN)NC(=O)[C@@H](Cc2c[nH]c3ccccc23)NC(=O)[C@H](Cc2ccc(O)c(F)c2)NC(=O)[C@H](CCSCC(=O)NCCCCCCNC(=O)CN2CCN3CCN4CCN(CC2)CC(=O)[O][Lu]([O]C(=O)C3)[O]C(=O)C4)N(C)C(=O)[C@H](Cc2ccccc2)NC1=O [RB-0003280] (cyclo(F[NMehCys](DOTA(Lu)NH(CH2)6NHCOCH2)[Tyr(3-F)][dW]KT)),< 1,–
CC(c1ccccc1)[C@@H]1NC(=O)[C@H]([C@@H](C)O)NC(=O)[C@H](CCCCN)NC(=O)[C@@H](Cc2c[nH]c3ccccc23)NC(=O)[C@H](Cc2ccc(O)cc2)NC(=O)[C@H](CCSCC(=O)NCCCCCCNC(=O)CN2CCN3CCN4CCN(CC2)CC(=O)[O][Lu]([O]C(=O)C3)[O]C(=O)C4)N(C)C1=O (stereo partly drawn) [RB-0003281] (cyclo(KT[X21][NMehCys](DOTA(Lu)NH(CH2)6NHCOCH2)Y[dW])),3.33 to 10,–
C[C@@H](O)[C@@H]1NC(=O)[C@H](CCCCN)NC(=O)[C@@H](Cc2c[nH]c3ccccc23)NC(=O)[C@H](Cc2ccc(O)cc2)NC(=O)[C@H](CCCCNC(=O)CN2CCN3CCN4CCN(CC2)CC(=O)[O][Lu]([O]C(=O)C3)[O]C(=O)C4)N(C)C(=O)[C@H](Cc2ccccc2)NC1=O [RB-0003292],–,Ki [2]: < 1 nM
C[C@@H](O)[C@@H]1NC(=O)[C@H](CCCCN)NC(=O)[C@@H](Cc2c[nH]c3ccccc23)NC(=O)[C@H](Cc2ccc(O)cc2)NC(=O)[C@H](CCCCNC(=O)COCCOCCNC(=O)CN2CCN3CCN4CCN(CC2)CC(=O)[O][Lu]([O]C(=O)C3)[O]C(=O)C4)N(C)C(=O)[C@H](Cc2ccccc2)NC1=O [RB-0003294],–,Ki [2]: 1 to 3.33 nM
C[C@@H](O)[C@@H]1NC(=O)[C@H](CCCCN)NC(=O)[C@@H](Cc2c[nH]c3ccccc23)NC(=O)[C@H](Cc2ccc(O)cc2)NC(=O)[C@H](CCCCNC(=O)CCCCCCCNC(=O)CN2CCN3CCN4CCN(CC2)CC(=O)[O][Lu]([O]C(=O)C3)[O]C(=O)C4)N(C)C(=O)[C@H](Cc2ccccc2)NC1=O [RB-0003296],–,Ki [2]: 1 to 3.33 nM
C[C@@H](O)[C@@H]1NC(=O)[C@H](CCCCN)NC(=O)[C@@H](Cc2c[nH]c3ccccc23)NC(=O)[C@H](Cc2ccc(O)cc2)NC(=O)[C@H](CCCCNC(=O)CCCCC[C@H](NC(=O)CN2CCN3CCN4CCN(CC2)CC(=O)[O][Lu]([O]C(=O)C3)[O]C(=O)C4)C(=O)O)N(C)C(=O)[C@H](Cc2ccccc2)NC1=O [RB-0003298],–,Ki [2]: 3.33 to 10 nM
C[C@@H](O)[C@@H]1NC(=O)[C@H](CCCCN)NC(=O)[C@@H](Cc2c[nH]c3ccccc23)NC(=O)[C@H](Cc2cccc(C(N)=O)c2)NC(=O)[C@H](CCSCC(=O)NCCCCCCNC(=O)CN2CCN3CCN4CCN(CC2)CC(=O)[O][Lu]([O]C(=O)C3)[O]C(=O)C4)N(C)C(=O)[C@H](Cc2ccccc2)NC1=O [RB-0003302] (cyclo(F[NMehCys](DOTA(Lu)NH(CH2)6NHCOCH2)[Phe(3-CONH2)][dW]KT)),3.33 to 10,–
C[C@@H](O)[C@@H]1NC(=O)[C@H](CCCCN)NC(=O)[C@@H](Cc2c[nH]c3ccccc23)NC(=O)[C@H](Cc2ccccc2C(N)=O)NC(=O)[C@H](CCSCC(=O)NCCCCCCNC(=O)CN2CCN3CCN4CCN(CC2)CC(=O)[O][Lu]([O]C(=O)C3)[O]C(=O)C4)N(C)C(=O)[C@H](Cc2ccccc2)NC1=O [RB-0003304] (cyclo(F[NMehCys](DOTA(Lu)NH(CH2)6NHCOCH2)[Phe(2-CONH2)][dW]KT)),3.33 to 10,–
C[C@@H](O)[C@@H]1NC(=O)[C@H](CCCCN)NC(=O)[C@@H](Cc2c[nH]c3ccccc23)NC(=O)[C@H](Cc2ccc(O)cc2)NC(=O)[C@H](CCSCC(=O)NCCCCCCNC(=O)CN2CCN3CCN4CCN(CC2)CC(=O)[O][Lu]([O]C(=O)C3)[O]C(=O)C4)N(C)C(=O)[C@H](Cc2cccc(C(N)=O)c2)NC1=O [RB-0003306] (cyclo(KT[Phe(3-CONH2)][NMehCys](DOTA(Lu)NH(CH2)6NHCOCH2)Y[dW])),1 to 3.33,–
C[C@@H](O)[C@@H]1NC(=O)[C@H](CCCCN)NC(=O)[C@@H](Cc2c[nH]c3cc(F)ccc23)NC(=O)[C@H](Cc2ccc(O)cc2)NC(=O)[C@H](CCSCC(=O)NCCCCCCNC(=O)CN2CCN3CCN4CCN(CC2)CC(=O)[O][Lu]([O]C(=O)C3)[O]C(=O)C4)N(C)C(=O)[C@H](Cc2ccccc2)NC1=O [RB-0003309] (cyclo(F[NMehCys](DOTA(Lu)NH(CH2)6NHCOCH2)Y[dTrp(6-F)]KT)),< 1,–
C[C@H](O)[C@@H]1NC(=O)[C@H](CCCCN)NC(=O)[C@@H](Cc2c[nH]c3ccccc23)NC(=O)[C@H](Cc2ccc(O)cc2)NC(=O)[C@H](CCSCC(=O)NCCOCCOCCOCCNC(=O)CN2CCN3CCN4CCN(CC2)CC(=O)[O][Lu]([O]C(=O)C3)[O]C(=O)C4)N(C)C(=O)[C@H](Cc2ccccc2)NC1=O [RB-0003357],< 1,–
C[C@@H](O)[C@@H]1NC(=O)[C@H](CCCCN)NC(=O)[C@@H](Cc2c[nH]c3ccccc23)NC(=O)[C@H](Cc2ccc(O)cc2)NC(=O)[C@H](CCSCCC(=O)NCCCCCCNC(=O)CN2CCN3CCN4CCN(CC2)CC(=O)[O][Lu]([O]C(=O)C3)[O]C(=O)C4)N(C)C(=O)[C@H](Cc2ccccc2)NC1=O [RB-0003374],< 1,–
C[C@@H](O)[C@@H]1NC(=O)[C@H](CCCCN)NC(=O)[C@@H](Cc2c[nH]c3ccccc23)NC(=O)[C@H](Cc2ccc(O)cc2)NC(=O)[C@H](CCSCCC(=O)NCCCCC[C@H](NC(=O)CN2CCN3CCN4CCN(CC2)CC(=O)[O][Lu]([O]C(=O)C3)[O]C(=O)C4)C(=O)O)N(C)C(=O)[C@H](Cc2ccccc2)NC1=O [RB-0003375],1 to 3.33,–
C[C@@H](O)[C@@H]1NC(=O)[C@H](CCCCN)NC(=O)[C@@H]([C@@H](C)c2c[nH]c3ccccc23)NC(=O)[C@H](Cc2ccncc2)NC(=O)[C@H](CCSCC(=O)NCCCCCCNC(=O)CN2CCN3CCN4CCN(CC2)CC(=O)[O][Lu]([O]C(=O)C3)[O]C(=O)C4)N(C)C(=O)[C@H](Cc2ccccc2)NC1=O [RB-0003381] (cyclo([4Pal][dTrp(βS-Me)]KTF[NMehCys](DOTA(Lu)NH(CH2)6NHCOCH2))),< 1,–
C[C@@H](O)[C@@H]1NC(=O)[C@H](CCCCN)NC(=O)[C@@H]([C@@H](C)c2c[nH]c3ccccc23)NC(=O)[C@H](Cc2cccnc2)NC(=O)[C@H](CCSCC(=O)NCCCCCCNC(=O)CN2CCN3CCN4CCN(CC2)CC(=O)[O][Lu]([O]C(=O)C3)[O]C(=O)C4)N(C)C(=O)[C@H](Cc2ccccc2)NC1=O [RB-0003382] (cyclo([3Pal][dTrp(βS-Me)]KTF[NMehCys](DOTA(Lu)NH(CH2)6NHCOCH2))),< 1,–
C[C@H](c1ccccc1)[C@@H]1NC(=O)[C@H](CCSCC(=O)NCCCCCCNC(=O)CN2CCN3CCN4CCN(CC2)CC(=O)[O][Lu]([O]C(=O)C3)[O]C(=O)C4)N(C)C(=O)[C@H](Cc2ccccc2)NC(=O)[C@H]([C@@H](C)O)NC(=O)[C@H](CCCCN)NC(=O)[C@@H]([C@@H](C)c2c[nH]c3ccccc23)NC1=O [RB-0003383] (cyclo(F[NMehCys](DOTA(Lu)NH(CH2)6NHCOCH2)[Phe(3R-Me)][dTrp(βS-Me)]KT)),< 1,–
C[C@@H](O)[C@@H]1NC(=O)[C@H](CCCCN)NC(=O)[C@@H]([C@@H](C)c2c[nH]c3ccccc23)NC(=O)[C@H](Cc2ccncc2)NC(=O)[C@H](CCSCC(=O)NCCCCCCNC(=O)CN2CCN(CC(=O)O)CCN(CC(=O)O)CCN(CC(=O)O)CC2)N(C)C(=O)[C@H](Cc2cccnc2)NC1=O [RB-0003407] (cyclo([3Pal][NMehCys](X3)[4Pal][dTrp(βS-Me)]KT)),–,Ki (read-out: SSTR2 Ki): 1 to 3.33 nM
C[C@H](c1ccccc1)[C@@H]1NC(=O)[C@H]([C@@H](C)O)NC(=O)[C@H](CCCCN)NC(=O)[C@@H]([C@@H](C)c2c[nH]c3ccccc23)NC(=O)[C@H](Cc2ccncc2)NC(=O)[C@H](CCSCC(=O)NCCCCCCNC(=O)CN2CCN(CC(=O)O)CCN(CC(=O)O)CCN(CC(=O)O)CC2)N(C)C1=O [RB-0003408],–,Ki (read-out: SSTR2 Ki): 1 to 3.33 nM
C[C@@H](O)[C@@H]1NC(=O)[C@H](CCCCN)NC(=O)[C@@H]([C@@H](C)c2c[nH]c3ccccc23)NC(=O)[C@H](Cc2ccncc2)NC(=O)[C@H](CCSCC(=O)NCCCCCCNC(=O)CN2CCN(CC(=O)O)CCN(CC(=O)O)CCN(CC(=O)O)CC2)N(C)C(=O)[C@H]([C@@H](C)c2ccccc2)NC1=O [RB-0003409],–,Ki (read-out: SSTR2 Ki): < 1 nM
C[C@@H](O)[C@@H]1NC(=O)[C@H](CCCCN)NC(=O)[C@@H](Cc2c[nH]c3ccccc23)NC(=O)[C@H](Cc2ccncc2)NC(=O)[C@H](CCSCC(=O)NCCCCCCNC(=O)CN2CCN3CCN4CCN(CC2)CC(=O)[O][Lu]([O]C(=O)C3)[O]C(=O)C4)N(C)C(=O)[C@H](Cc2ccncc2)NC1=O [RB-0003443] (cyclo([4Pal][NMehCys](DOTA(Lu)NH(CH2)6NHCOCH2)[4Pal][dW]KT)),10 to 33.3,–
